Assay results from paper PMC12687449, “Membrane disruption attenuates agonist potency in prostanoid receptors” (Biochemical Journal, 2025).

What was measured:
[1] = biological target: ETB receptor (wildtype) (human) (UniProt P24530)
[2] = biological target: S1P3 receptor (Homo sapiens, UniProt Q99500); test: BRET-based G protein activation, wildtype S1P3 receptor + Gαq biosensor in HEK293T cells; format: cell-based
Text: […] Afterward, the cells were washed five times for single-cell FRET measurements or three times for BRET measurements with internal buffer.
Concentration-response curves were fitted in GraphPad Prism 8 using nonlinear regression (log(agonist) vs. response - variable slope (four parameters)) with the hillslope set to 1, the bottom constrained to 0 and the top to 1 using the following equation: […]

[3] = biological target: T1, DP2 receptor conformation sensor (Homo sapiens, UniProt Q9Y5Y4); test: FRET-based DP2 receptor conformation sensor, multiple-cell measurements in HEK293 cells or membrane fragments
T1 sequence (Q9Y5Y4 1-231 limits assumed): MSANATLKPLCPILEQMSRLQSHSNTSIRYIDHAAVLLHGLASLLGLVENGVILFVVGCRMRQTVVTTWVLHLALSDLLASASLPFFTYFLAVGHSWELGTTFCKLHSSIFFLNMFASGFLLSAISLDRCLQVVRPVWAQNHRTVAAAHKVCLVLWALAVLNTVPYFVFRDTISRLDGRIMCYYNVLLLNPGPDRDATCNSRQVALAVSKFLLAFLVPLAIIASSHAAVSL
T1 sequence (Q9Y5Y4 248-308 limits assumed): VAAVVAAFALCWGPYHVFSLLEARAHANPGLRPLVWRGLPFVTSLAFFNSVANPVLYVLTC
Procedure: (§1) HEK293 cells stably expressing the EP4 receptor, IP receptor, or DP2 receptor conformation sensor were seeded on 15 cm Ø dishes and grown until optical confluence. The cells were washed once with Dulbecco’s PBS (Capricorn Scientific GmbH), without Ca & Mg and Phenol Red (phosphate-buffered saline, PBS). After adding 5 ml PBS to the cells, the dish was treated with liquid nitrogen until the solution was visibly frozen. These dishes were stored at −80°C until the measurements were carried out. On the day of the measurement, the dishes were removed from the freezer and stored at room temperature until the buffer solution had thawed. The material was collected with a cell scraper and centrifuged (5000 rpm/5 min). […]
Intact HEK293 cells stably expressing the EP4 receptor, IP receptor, or DP2 receptor conformation sensors were counted, adjusted to 100,000–120,000 cells per well, and seeded on poly-L-lysine coated microplates one day before measurement. […]
We used a Spark 20M plate reader (Tecan, Männedorf, Switzerland) for multiple-cell FRET measurements of intact cells or membrane fragments. The cells were measured from the bottom and the donor fluorescent protein (mT2) was excited at 430 nm. First, the cells were measured for the baseline emission ratio. […] The emitted donor fluorescence (mT2) and acceptor fluorescence (eYFP) were recorded at 485 nm and 535 nm, respectively. […]

[4] = biological target: T2, DP2 receptor (Homo sapiens, UniProt Q9Y5Y4); test: BRET-based G protein activation, wildtype DP2 receptor + Gαo biosensor in HEK293T cells; format: cell-based
T2 construct: host or cells: HEK293T (transient)
T2 sequence (Q9Y5Y4 1-395): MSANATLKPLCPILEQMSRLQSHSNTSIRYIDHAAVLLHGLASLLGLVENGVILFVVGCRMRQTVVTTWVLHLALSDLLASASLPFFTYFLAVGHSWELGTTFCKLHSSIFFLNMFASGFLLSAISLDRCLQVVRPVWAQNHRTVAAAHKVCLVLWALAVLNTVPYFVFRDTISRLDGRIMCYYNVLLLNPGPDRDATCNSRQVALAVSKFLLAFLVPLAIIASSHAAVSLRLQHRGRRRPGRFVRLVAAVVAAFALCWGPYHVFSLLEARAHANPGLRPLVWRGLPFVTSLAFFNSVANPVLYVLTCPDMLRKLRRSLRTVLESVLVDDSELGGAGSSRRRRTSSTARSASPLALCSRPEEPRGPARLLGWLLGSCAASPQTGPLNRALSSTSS
Procedure: Two days before BRET measurements were performed, HEK293T cells were transiently transfected with 3 µg of cDNAs containing TP receptor, ETB receptor, DP2 receptor, or S1P3 receptor and 3 µg of cDNAs containing Gβ3-T2A-cpVenus-Gγ9-IRES-Gαq-NLuc or Gβ3-T2A-cpVenus-Gγ9-IRES-Gαo1-NLuc using linear 25 kDa PEI reagent (polyethylenimine, PolyScience Inc., Hirschberg an der Bergstraße, Germany). The ratio between DNA and PEI was 1:3, and 50 µl serum-free DMEM was added per 1 µg DNA. The same amount of serum-free DMEM was also added separately to the PEI solution. DNA-DMEM and PEI-DMEM mixtures were incubated for 5 minutes, followed by incubation of the final mixture for another 10 minutes. […]
Two days before the actual measurement, HEK293T cells were transiently transfected and seeded on microplates. […] The measurements were performed using a Spark 20M plate reader (Tecan) at 37°C. Initially, the cells were measured for the baseline emission ratio. After the baseline measurement, 20 µl of external or internal buffer containing differing concentrations of either U-46619, 4-Ala ET-1, PGD,2 or S1P or external or internal buffer alone were added to the cells and measured. […] The cells were measured from the top and the donor luminescence (NLuc) was recorded at 415 to 470 nm and the acceptor luminescence (cpVenus) at 520 to 590 nm. Data were recorded using SparkControl^TM software. […]

[5] = biological target: T3, TP receptor conformation sensor (Homo sapiens, UniProt P21731); test: FRET-based TP receptor conformation sensor, single-cell measurements in HEK293 cells; conditions: 1 µM U-46619, reference 8 µM U-46619
T3 sequence (P21731 1-311 limits assumed): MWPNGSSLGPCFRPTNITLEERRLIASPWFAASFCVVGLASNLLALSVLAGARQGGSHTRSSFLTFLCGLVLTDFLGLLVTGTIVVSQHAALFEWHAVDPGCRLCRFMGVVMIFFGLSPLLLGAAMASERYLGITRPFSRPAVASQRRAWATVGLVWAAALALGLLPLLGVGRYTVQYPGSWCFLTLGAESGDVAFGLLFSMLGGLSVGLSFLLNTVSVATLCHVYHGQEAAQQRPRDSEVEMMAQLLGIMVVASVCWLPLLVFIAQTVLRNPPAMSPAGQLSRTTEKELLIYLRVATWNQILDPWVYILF

[6] = biological target: EP4 receptor conformation sensor (Homo sapiens, UniProt P35408); test: FRET-based EP4 receptor conformation sensor stably expressed in HEK293 cells (intact, saponin-permeabilized, membrane fragments); format: cell-based
Sequence of EP4 receptor conformation sensor (P35408 1-332 limits assumed): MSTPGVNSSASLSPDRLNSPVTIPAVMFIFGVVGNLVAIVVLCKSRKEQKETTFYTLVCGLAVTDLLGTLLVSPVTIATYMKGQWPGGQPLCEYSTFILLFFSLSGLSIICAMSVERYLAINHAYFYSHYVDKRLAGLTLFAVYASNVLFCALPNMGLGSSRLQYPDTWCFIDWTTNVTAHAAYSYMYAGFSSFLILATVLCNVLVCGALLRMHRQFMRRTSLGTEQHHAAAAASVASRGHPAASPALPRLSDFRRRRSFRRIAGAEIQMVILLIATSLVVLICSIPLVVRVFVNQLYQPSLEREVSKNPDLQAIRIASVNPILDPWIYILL
Procedure: (§2) The cells were washed once with external buffer and subsequently incubated 2 minutes for single-cell FRET measurements or 10 minutes for BRET measurements in 0.05% saponin (AppliChem, Darmstadt, Germany) dissolved in internal buffer. Afterward, the cells were washed five times for single-cell FRET measurements or three times for BRET measurements with internal buffer.
as §1, with “min). The supernatant was discarded, the pellet containing the membrane fragments was resuspended with external buffer containing 0.1% BSA and seeded on microplates.” for “min).”

[7] = biological target: T4, EP2 receptor conformation sensor (Homo sapiens, UniProt P43116, DEL238-250); test: FRET-based EP2 receptor conformation sensor, single-cell measurements in HEK293 cells; conditions: saponin-permeabilized cells, 3000 nM PGE2, reference 20 µM PGE2
T4 construct: mT2 insertion and truncation after Q349; expressed in transfected cells
T4 sequence (P43116 with tags, fused parts or gaps DEL238-250): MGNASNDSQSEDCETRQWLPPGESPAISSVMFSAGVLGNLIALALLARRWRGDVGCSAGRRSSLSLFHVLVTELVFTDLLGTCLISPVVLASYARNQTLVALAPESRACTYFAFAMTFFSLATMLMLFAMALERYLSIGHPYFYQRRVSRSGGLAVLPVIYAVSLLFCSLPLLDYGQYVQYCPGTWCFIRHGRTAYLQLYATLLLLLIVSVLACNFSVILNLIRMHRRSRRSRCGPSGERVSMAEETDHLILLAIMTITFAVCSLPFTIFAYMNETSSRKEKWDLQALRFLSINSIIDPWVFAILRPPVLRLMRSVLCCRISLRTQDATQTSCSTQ
Procedure: as §2
The coverslips loaded with stably transfected HEK293 cells containing either the FFA3 receptor, α2A-AR CAM, or ETB receptor conformation sensors were clamped in an Attofluor^TM cell chamber and were washed once with external buffer. Afterward, they were side by side either permeabilized or directly measured at room temperature by the use of an inverted microscope (Elipse Ti2, Nikon, Düsseldorf, Germany), equipped with a 100× oil immersion objective (Plan Apo λ 100 x/1.45 oil ∞/0.17 WD 0.13, Nikon, Düsseldorf, Germany) and dual excitation and dual emission imaging capabilities. […] The fluorescence emission of mT2 and the respective YFP variant was simultaneously collected by a second beamsplitter (488, Chroma, Bellows Falls, Vermont, U.S.A.) and two emission filters (mT2: 474/27, Chroma; YFP: 544/23, Chroma). […] For all single-cell FRET experiments, cells were prospectively selected based on a continuous plasma-membrane fluorescence rim and appropriate fluorescence distribution to ensure a PM-dominant receptor signal. […]

[8] = saponin-permeabilized cells with 1 µM GTP

Sequence of S1P3 receptor (Q99500 whole entry): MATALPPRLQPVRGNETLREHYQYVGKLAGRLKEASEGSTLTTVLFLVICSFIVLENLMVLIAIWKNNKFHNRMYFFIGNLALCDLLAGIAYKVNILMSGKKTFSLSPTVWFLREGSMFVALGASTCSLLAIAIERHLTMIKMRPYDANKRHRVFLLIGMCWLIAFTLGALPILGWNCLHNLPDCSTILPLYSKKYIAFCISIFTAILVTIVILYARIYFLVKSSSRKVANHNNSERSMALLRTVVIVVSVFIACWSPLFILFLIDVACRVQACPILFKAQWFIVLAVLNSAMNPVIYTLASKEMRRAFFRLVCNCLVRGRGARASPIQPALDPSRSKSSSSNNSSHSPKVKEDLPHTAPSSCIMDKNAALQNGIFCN
Sequence of ETB receptor (wildtype) (human) (P24530 27-442): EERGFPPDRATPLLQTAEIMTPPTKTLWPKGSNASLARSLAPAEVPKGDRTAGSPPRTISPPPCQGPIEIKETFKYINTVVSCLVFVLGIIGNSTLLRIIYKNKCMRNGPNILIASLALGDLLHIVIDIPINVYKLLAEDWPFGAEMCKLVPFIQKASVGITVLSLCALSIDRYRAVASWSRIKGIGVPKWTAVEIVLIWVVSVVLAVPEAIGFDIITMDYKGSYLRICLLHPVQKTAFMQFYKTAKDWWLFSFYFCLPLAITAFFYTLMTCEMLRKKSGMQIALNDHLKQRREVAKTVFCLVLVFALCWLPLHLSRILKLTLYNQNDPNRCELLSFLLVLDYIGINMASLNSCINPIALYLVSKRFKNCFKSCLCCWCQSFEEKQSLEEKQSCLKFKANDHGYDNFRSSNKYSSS

Compound: 4-Ala endothelin-1 (peptide)
- BRET-based Gαq biosensor activation in HEK293T cells, concentration-response to 4-Ala ET-1: change of agonist potency in saponin-permeabilized cells with 1 µM GTP against intact cells (Figure 4F) [1]: 15 fold

Compound: CCCCCCCCCCCCC/C=C/[C@@H](O)[C@@H](N)COP(=O)(O)O [S1P, Sphingosine-1-phosphate]
- EC50 ([2]; intact HEK293T cells): 28.2 nM
- EC50 [2, 8]: 0.55 nM

Compound: CCCCC[C@H](O)/C=C/[C@H]1C(=O)C[C@H](O)[C@@H]1C/C=C\CCCC(=O)O [PGD2, (Z)-7-[(1R,2R,5S)-5-hydroxy-2-[(E,3S)-3-hydroxyoct-1-enyl]-3-oxocyclopentyl]hept-5-enoic acid]
- response to the agonist ([3]; intact cells): strong response
- response to the agonist ([3]; membrane fragments): almost no response
- EC50 ([4]; intact HEK293T cells): 0.562 nM
- EC50 [4, 8]: 20.4 nM

Compound: CCCCCC(O)/C=C/C1C2CC(CO2)C1C/C=C\CCCC(=O)O (stereo not drawn) [U-46619, 9,11-dideoxy-9α,11α-methanoepoxy-prosta-5Z,13E-dien-1-oic acid]
- response to the test concentration (about 10 times EC50) normalized to saturating concentration ([5]; intact cells): full response
- response to the test concentration normalized to saturating concentration ([5]; saponin-permeabilized cells): 59% ± 1

Compound: CCCCC[C@H](O)/C=C/[C@H]1[C@H](O)CC(=O)[C@@H]1C/C=C\CCCC(=O)O [PGE2, (Z)-7-[(1R,2R,3R)-3-hydroxy-2-[(E,3S)-3-hydroxyoct-1-enyl]-5-oxocyclopentyl]hept-5-enoic acid]
- activation at 0.3 µM ([6]; HEK293, read-out: normalized response to 10 times EC50): 53%
- response to 10 times EC50 ([6]; saponin-permeabilized cells, internal buffer supplemented with 5 mM ATP and 25 µM GTP): 56% ± 1
- response to the test concentration normalized to saturating concentration ([6]; saponin-permeabilized cells, internal buffer, 300 nM PGE2, reference 20 µM PGE2): 56% ± 1
- response to the test concentration normalized to saturating concentration [7]: about 51% ± 6
